The test deals with VSV (ATCC VR-1238). The format is cell-based, vesicular stomatitis virus.

Like-named read-outs stand apart in the source and are kept apart here.

`Cc1cc2nc3c(=O)[nH]c(=O)nc-3n(C[C@H](O)[C@H](O)[C@H](O)CO)c2cc1C` [riboflavin]: the “MVEPI of VSV in plasma” value (intermediate-acting RUV: 311 nm, irradiation dose 6.49 J/mL) was determined as 4.04 and the “MVEPI of VSV in plasma” value (weak-acting (low-acting) RUV: 365 nm, irradiation dose 12.56 J/mL) is reported as 1.77.

These data come from patent US20240002899A1 (priority 2022, published 2024).
